In experiment [1] the test system is A375.S2 human melanoma cells. Nature of the experiment: Tumor growth of subcutaneous A375.S2 xenografts in nude mice. The experiment is classed as in vivo. To be noted: oral. From the text: (§1) A375.S2 human melanoma cells were purchased from the American Type Culture Collection (Rockville, Md.). Cells were maintained in Dulbecco's Modified Eagle's Medium supplemented with pyruvate, nonessential amino acids, 10% fetal calf serum and penicillin-streptomycin.
(§2) Female nu/nu immunodeficient nude mice (42 days old) were purchased from Charles River Laboratories (Wilmington, Mass.). Mice were housed five per cage in microisolator cages placed in laminar flow shelving to maintain sterility. All bedding, food, water and cages were autoclaved. Animals were handled within the sterile confines of a laminar flow cabinet. The mice were otherwise maintained under standard vivarium conditions.
Cells growing as monolayers in T150 tissue culture flasks were detached by trypsinization with 10 ml of 0.05% trypsin plus 0.53 mM EDTA per flask. […] A 1.0 ml portion of cell suspension was added to 20 ml of diluent and counted on a Coulter particle counter. […]
Analysis of variance, mean values for treatment groups and standard error of the mean for in vivo parameters were calculated using IMSL subroutines on a VAX computer. […] Weight loss was calculated for each individual animal from day 1 to day 23. Mean body weight loss for each treatment group was calculated and used for statistical analyses.

Experiment [2] is described as follows: Body weight loss (cachexia) in nude mice bearing subcutaneous A375.S2 tumors. It counts as in vivo. Particulars: for reduction in weight loss: weight loss day 1 to day 23, corrected for tumor burden, vs vehicle.
Excerpt: as §1, §2
Cells growing as monolayers in T150 tissue culture flasks were detached by trypsinization with 10 ml of 0.05% trypsin plus 0.53 mM EDTA per flask. Tumor cell suspensions were pooled and trypsin was inactivated by the addition of serum containing medium (10 ml per 40 ml of trypsin cell suspension). Cells were collected by centrifugation and resuspended in Hank's Balanced Salt Solution (HBSS) warmed to 37° C. A 1.0 ml portion of cell suspension was added to 20 ml of diluent and counted on a Coulter particle counter. The cell suspensions were recentrifuged and resuspended at a concentration of 1×10^6 cell per 0.10 ml of HBSS. Mice were inoculated with a single subcutaneous injection of 0.10 ml of tumor cell suspension in the inguinal region. Mice were housed five per cage with 15 mice assigned to each treatment group. Mice were tagged by ear punches to allow the monitoring of individual mice during the course of the study. Body weight and tumor size determined from caliper measurements were measured weekly. The caliper measurements of length and width were multiplied to obtain tumor areas. At the end of study, mice were sacrificed by CO2 asphyxiation. Three days after tumor inoculation, the five-day treatment with R115777 was initiated. R115777 was administered once daily by oral gavage in a 20% β-cyclodextrin vehicle as a volume of 0.10 ml of solution per 10 gm body weight. Control groups received the same dosage volume of the 20% β-cyclodextrin vehicle.
R115777 was prepared for oral administration by dissolving the compound first as a 2× concentrated stock in 40% hydroxypropyl β-cyclodextrin in 0.1 N HCl. R115777 was dissolved by stirring vigorously approximately 30 minutes followed by sonication for 10 min. The R115777 solutions were brought to a final concentration by diluting 1:1 with 0.1 N HCl. The final drug solutions were sterile filtered immediately and transferred to sterile tubes. Solutions were stored refrigerated and protected from light during the course of the study and sterility was maintained by opening solutions under sterile laminar flow conditions.
Analysis of variance, mean values for treatment groups and standard error of the mean for in vivo parameters were calculated using IMSL subroutines on a VAX computer. A value of p<0.05 was considered significant. Weight loss was calculated for each individual animal from day 1 to day 23. Mean body weight loss for each treatment group was calculated and used for statistical analyses.

As to `Cn1cncc1C(N)(c1ccc(Cl)cc1)c1ccc2c(c1)c(-c1cccc(Cl)c1)cc(=O)n2C` (single isomer, unassigned; (+)) [R115777, (+)-6-[amino(4-chlorophenyl)(1-methyl-1H-imidazol-5-yl)methyl]-4-(3-chlorophenyl)-1-methyl-2(1H)-quinolinone], the “reduction of final tumor weight” value in experiment [1] (highest tested dose, postmortem tumor weight (FIG. 5)) was 27%. Further, the “tumor growth from tumor area measurements” value in experiment [1] (50-200 mg/kg, biweekly tumor area measurements (FIG. 1)) is “minimal reduction in tumor growth”. The “reduction in weight loss” value in experiment [2] (50 mg/kg once daily oral gavage, A375.S2 tumor-bearing nude mice) is 28%; in experiment [2] (100 mg/kg once daily oral gavage, A375.S2 tumor-bearing nude mice), 45%; in experiment [2] (200 mg/kg once daily oral gavage, A375.S2 tumor-bearing nude mice) it was 67%. Besides, in experiment [2] (oral, 50-200 mg/kg, body weight over time from day 14 (FIG. 2), A375.S2 tumor-bearing nude mice), the “body weight course (weight loss)” value is reported as “appeared to prevent or delay the weight loss in a dose-dependent fashion”. Also, in experiment [2] (oral, 50-200 mg/kg, individual weight loss day 1 to day 23 corrected for tumor burden (FIG. 3), p<0.05 significant), the “body weight loss, statistical result” value was “significant dose dependent reduction of body weight loss”.

Source of the values: patent publication US20040157773A1, “Farnesyl protein transferase inhibitors for treating cachexia” (priority 2003, published 2004).
